The assay concerns the target T1, CMKLR1 (Homo sapiens, UniProt Q99788).
T1 construct: expressed in transfected cells; host or cells: CHO-K1 cells expressing Gα-16 (CHO-Ga16-CMKLR1)
T1 sequence (Q99788 1-373): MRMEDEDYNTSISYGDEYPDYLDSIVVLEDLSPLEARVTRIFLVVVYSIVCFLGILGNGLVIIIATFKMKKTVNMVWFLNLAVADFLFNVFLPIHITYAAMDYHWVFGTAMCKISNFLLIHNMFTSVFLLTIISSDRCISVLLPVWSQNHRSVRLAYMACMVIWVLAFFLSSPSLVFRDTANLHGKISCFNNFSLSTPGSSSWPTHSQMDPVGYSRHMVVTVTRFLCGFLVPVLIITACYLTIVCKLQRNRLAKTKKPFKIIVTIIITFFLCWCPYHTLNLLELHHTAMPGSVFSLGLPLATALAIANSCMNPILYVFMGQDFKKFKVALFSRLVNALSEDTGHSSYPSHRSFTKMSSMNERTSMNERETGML
In words: Calcium mobilization assay (CHO-Ga16-CMKLR1 cells, chemerin-9 induced signal). The following applies: for inhibition at 10 µM: read-out: CMKLR1 activity in CHO cells (% inhibition at 10 µM), 10 µM compound, relative to calcium signal induced by 2.5 nM chemerin-9; for IC50: calcium signal induced by 2.5 nM chemerin-9. Type of assay: cell-based. How it is done: To establish a CMKLR1 calcium mobilization cell evaluation system, CHO-K1 cells expressing Gα-16 were transfected with pcDNA3.1-derived human CMKLR1-expressing plasmids using Lipofectamine 2000 (Invitrogen, Waltham, Massachusetts, USA). […] The established cell line (CHO-Ga16-CMKLR1) was cultured in F-12 medium (Invitrogen) supplemented with 10% (v/v) fetal bovine serum (FBS; Invitrogen), 0.5 mg/mL geneticin, 0.2 mg/mL hygromycin B (Clontech), and 1% (v/v) antibiotic-antimycotic solution (Invitrogen) under 5% CO2 at 37°C.
100 µL/well was added to a 96-well plate (Corning) and incubated for 24 h. The buffer solution was prepared by adding 1 M HEPES solution to Hanks' Balanced Salt Solution (HBSS) (Invitrogen) and adjusting the pH to 7.4 by dropwise addition of 1 M NaOH.
The fluorescent dye solution was prepared using the buffer provided with the Calcium 5 Assay Kit (Molecular Devices). 40 µL/well of dye solution was added to each well and incubated at 37°C in a 5% CO2 atmosphere for 30 min. […] The final DMSO concentration was adjusted to 2%. 40 µL of each compound solution was added to the well and incubated for 30 min. […] Prism 5 software (GraphPad) was then used to obtain IC50 values for various compounds. IC50 values were derived based on concentration-response curves, and all experiments were repeated at least three times.
For orientation: Calcium assays in cells follow changes in intracellular calcium, usually with a dye or a luminescent sensor.

From patent EP4775568A1, “NOVEL COMPOUND AND USE THEREOF FOR TREATING PSORIASIS” (Gwangju Institute of Science and Technology, priority 2023, dated 2025) come the findings set out here.

By inhibition is commonly meant how much of the control response was suppressed. As a reminder, the IC50 is the midpoint of a concentration-inhibition curve.

Turning to `CC(C)n1nc(-c2ccccc2)c2ccc(COc3ccc(CC(C)(C)C(=O)O)cc3)cc21` [Compound 3, 3-(4-((1-isopropyl-3-phenyl-1H-indazol-6-yl)methoxy)phenyl)-2,2-dimethylpropanoic acid], the inhibition at 10 µM was found to be 10%.
Regarding `CC(CC(=O)O)c1ccc(OCc2ccc3c(-c4cc(Cl)nc(Cl)c4)nn(C4CCCC4)c3c2)cc1` (stereo not drawn) [Compound 33, 3-(4-((1-cyclopentyl-3-(2,6-dichloropyridin-4-yl)-1H-indazol-6-yl)methoxy)phenyl)butanoic acid], for the setting “Table 3, IC50 class”, the IC50 was > 1 µM.
Same read-out and setting: the figure for `C[C@@H](CC(=O)O)c1ccc(OCc2ccc3c(-c4ccc(C(=O)O)cc4)nn(C4CCCC4)c3c2)cc1` [Compound 51, (S)-4-(6-((4-(1-carboxypropan-2-yl)phenoxy)methyl)-1-cyclopentyl-1H-indazol-3-yl)benzoic acid] is 0.1 to 1 µM.
As to `CC(=O)Nc1ccc(-c2nn(C3CCCC3)c3cc(COc4ccc(C(C)CC(=O)O)cc4)ccc23)cc1` (stereo not drawn) [Compound 61, 3-(4-((3-(4-acetamidophenyl)-1-cyclopentyl-1H-indazol-6-yl)methoxy)phenyl)butanoic acid], for the setting “Table 4, IC50 class”, the concentration for half-maximal inhibition (IC50) was > 1 µM.
Still for that read-out and setting: the figure for `COc1ccc(-c2nn(C3CCCC3)c3cc(COc4ccc([C@H](C)CC(=O)O)cc4)ccc23)cc1` [Compound 57, (R)-3-(4-((1-cyclopentyl-3-(4-methoxyphenyl)-1H-indazol-6-yl)methoxy)phenyl)butanoic acid] is > 1 µM.
Turning to `CCOc1ccc(-c2nn(C3CCCC3)c3cc(COc4ccc(C(C)CC(=O)O)cc4)ccc23)cc1` (stereo not drawn) [Compound 29, 3-(4-((1-cyclopentyl-3-(4-ethoxyphenyl)-1H-indazol-6-yl)methoxy)phenyl)butanoic acid], the 50% inhibitory concentration (IC50) (Table 2, IC50 class) was > 1 µM.
For the compound `CC(CC(=O)O)c1ccc(OCc2ccc3c(-c4ccc5c(c4)OCO5)nn(C4CCCC4)c3c2)cc1` (stereo not drawn) [Compound 31, 3-(4-((3-(Benzo[d][1,3]dioxol-5-yl)-1-cyclopentyl-1H-indazol-6-yl)methoxy)phenyl)butanoic acid], the concentration for half-maximal inhibition (IC50) (Table 3, IC50 class) was > 1 µM.
On to `C[C@@H](CC(=O)O)c1ccc(OCc2ccc3c(-c4ccc(C(=O)O)cc4F)nn(C4CCCC4)c3c2)cc1` [Compound 52, (S)-4-(6-((4-(1-carboxypropan-2-yl)phenoxy)methyl)-1-cyclopentyl-1H-indazol-3-yl)-3-fluorobenzoic acid], for which, for the setting “Table 4, IC50 class”, the IC50 is 0.1 to 1 µM.
Regarding `CC(CC(=O)O)c1ccc(OCc2cnc3c(-c4ccc(O)cc4)nn(C4CCCC4)c3c2)cc1` (stereo not drawn) [Compound 72, 3-(4-((1-cyclopentyl-3-(4-hydroxyphenyl)-1H-pyrazolo[4,3-b]pyridin-6-yl)methoxy)phenyl)butanoic acid], the IC50 (Table 4, IC50 class) fell in the range of 0.1 to 1 µM.
As to `CC(C)Cn1nc(-c2ccccc2)c2ccc(COc3ccc(C(C)CC(=O)O)cc3)cc21` (stereo not drawn) [Compound 80, 3-(4-((1-isobutyl-3-phenyl-1H-indazol-6-yl)methoxy)phenyl)butanoic acid], the inhibition at 10 µM was found to be 52%.
For the compound `C[C@@H](CC(=O)O)c1ccc(OCc2ccc3c(-c4ccc(O)c(F)c4F)nn(C4CCCC4)c3c2)cc1` [Compound 55, (S)-3-(4-((1-cyclopentyl-3-(2,3-difluoro-4-hydroxyphenyl)-1H-indazol-6-yl)methoxy)phenyl)butanoic acid], the concentration for half-maximal inhibition (IC50) (Table 4, IC50 class) is > 1 µM.
Regarding `CC(CC(=O)O)c1ccc(OCc2ccc3c(-c4ccc(Cl)cc4)nn(C4CCCC4)c3c2)cc1` (stereo not drawn) [Compound 18, 3-(4-((3-(4-chlorophenyl)-1-cyclopentyl-1H-indazol-6-yl)methoxy)phenyl)butanoic acid], the IC50 (Table 2, IC50 class) was > 1 µM.
Take `C[C@@H](CC(=O)O)c1ccc(OCc2ccc3c(-c4ccc(O)cc4Cl)nn(C4CCCC4)c3c2)cc1` [Compound 42, (S)-3-(4-((3-(2-chloro-4-hydroxyphenyl)-1-cyclopentyl-1H-indazol-6-yl)methoxy)phenyl)butanoic acid]: under “Table 3, IC50 class”, the 50% inhibitory concentration (IC50) fell in the range of 0.1 to 1 µM.
`CCCn1nc(-c2ccccc2)c2ccc(COc3ccc(C(C)CC(=O)O)cc3)cc21` (stereo not drawn) [Compound 79, 3-(4-((3-phenyl-1-propyl-1H-indazol-6-yl)methoxy)phenyl)butanoic acid]: the inhibition at 10 µM was 60%.
In the case of `C[C@@H](CC(=O)O)c1ccc(OCc2cc(F)c3c(-c4cc(Cl)c(O)c(Cl)c4)nn(C4CCCC4)c3c2)cc1` [Compound 69, (S)-3-(4-((1-cyclopentyl-3-(3,5-dichloro-4-hydroxyphenyl)-4-fluoro-1H-indazol-6-yl)methoxy)phenyl)butanoic acid], the concentration for half-maximal inhibition (IC50) (Table 4, IC50 class) was < 0.1 µM.
As for `CC(CC(=O)O)c1ccc(OCc2ccc3c(-c4ccccc4)nn(C)c3c2)cc1` (stereo not drawn) [Compound 77, 3-(4-((1-methyl-3-phenyl-1H-indazol-6-yl)methoxy)phenyl)butanoic acid], the inhibition at 10 µM was 24%.
For the compound `CCC(CC)Oc1ccc(-c2nn(C3CCCC3)c3cc(COc4ccc(C(C)CC(=O)O)cc4)ccc23)cc1` (stereo not drawn) [Compound 27, 3-(4-((1-cyclopentyl-3-(4-(pentan-3-yloxy)phenyl)-1H-indazol-6-yl)methoxy)phenyl)butanoic acid], the IC50 (Table 2, IC50 class) is > 1 µM.
For the compound `CC(CC(=O)O)c1ccc(OCc2ccc3c(-c4cccc5ccccc45)nn(C4CCCC4)c3c2)cc1` (stereo not drawn) [Compound 26, 3-(4-((1-cyclopentyl-3-(naphthalen-1-yl)-1H-indazol-6-yl)methoxy)phenyl)butanoic acid], the concentration for half-maximal inhibition (IC50) (Table 2, IC50 class) is > 1 µM.
Turning to `C[C@@H](CC(=O)O)c1ccc(OCc2ccc3c(-c4ccc(O)c(O)c4)nn(C4CCCC4)c3c2)cc1` [Compound 38], the half-inhibitory concentration (IC50) (Table 3, IC50 class) was > 1 µM.
For the compound `CC(CC(=O)O)c1ccc(OCc2ccc3c(-c4ccccc4)nn(CC4CCCCC4)c3c2)cc1` (stereo not drawn) [Compound 83, 3-(4-((1-(cyclohexylmethyl)-3-phenyl-1H-indazol-6-yl)methoxy)phenyl)butanoic acid], the inhibition at 10 µM was determined as 28%.
In the case of `C[C@@H](CC(=O)O)c1ccc(OCc2ccc3c(-c4cccc(CO)c4)nn(C4CCCC4)c3c2)cc1` [Compound 54, (S)-3-(4-((1-cyclopentyl-3-(3-(hydroxymethyl)phenyl)-1H-indazol-6-yl)methoxy)phenyl)butanoic acid], the half-maximal inhibitory concentration (IC50) (Table 4, IC50 class) was > 1 µM.
